Patent publication US20230059747A1, “A COOLING PREPARATION” (SYMRISE AG, priority 2019, published 2023)

Assays:
[1] = system: rat eyes; settings: cited from earlier work
[2] = system: panel of 5 experienced testers; assay: Long lasting cooling sensation: panel evaluation of toothpaste compositions; type: in vivo, human; settings: added to standard toothpaste
Procedure: Phenylalkennals and homovanillic acid esters were added alone and in combination to a standard toothpaste composition. A panel of 5 experienced testers evaluated the compositions with regard to initial cooling effect during brushing, directly after brushing and the long last effect after 5 and after 10 minutes. The evaluation was done according to a score card from 1=almost no cooling effect to 10=strong cooling sensation. Example 1 is according to the invention, examples C1 to C3 serve for comparison.

SMILES | Pain sensation in rat eyes (assessment in words) [1] | Cooling sensation during and directly after brushing (in words) [2] | Long lasting cooling sensation after 5 and after 10 minutes (in words) [2]
CCCOC(=O)Cc1ccc(O)c(OC)c1 [II-17, Propyl-2-(4-hydroxy-3-methoxyphenyl) acetate] | active |  | 
C/C=C(/C=O)c1ccccc1 [Phenylbutenal, 2-Phenyl-but-2-enal] |  | improves the cooling sensation during and directly after brushing | does not have any long lasting effect
CCCCCCCCCCCCOC(=O)Cc1ccc(O)c(OC)c1 [dodecyl ester of homovanillic acid] | active |  | 
COC(=O)Cc1ccc(O)c(OC)c1 [methyl ester of homovanillic acid] | active |  | 
CCCCCCCCCOC(=O)Cc1ccc(O)c(OC)c1 [nonyl ester of homovanillic acid] | active |  | 
CCCCCCCCOC(=O)Cc1ccc(O)c(OC)c1 [octyl ester of homovanillic acid] | active |  | 
